Here are results for 66 molecules from patent publication US8741892B2, “Compounds” (Boehringer Ingelheim International GmbH, priority 2011, dated 2014).

pEC50: −log10 of the molar value.

One may read the pEC50 as the negative decadic logarithm of the EC50, by convention in mol/L.

T1 sequence (P41594 21-1212): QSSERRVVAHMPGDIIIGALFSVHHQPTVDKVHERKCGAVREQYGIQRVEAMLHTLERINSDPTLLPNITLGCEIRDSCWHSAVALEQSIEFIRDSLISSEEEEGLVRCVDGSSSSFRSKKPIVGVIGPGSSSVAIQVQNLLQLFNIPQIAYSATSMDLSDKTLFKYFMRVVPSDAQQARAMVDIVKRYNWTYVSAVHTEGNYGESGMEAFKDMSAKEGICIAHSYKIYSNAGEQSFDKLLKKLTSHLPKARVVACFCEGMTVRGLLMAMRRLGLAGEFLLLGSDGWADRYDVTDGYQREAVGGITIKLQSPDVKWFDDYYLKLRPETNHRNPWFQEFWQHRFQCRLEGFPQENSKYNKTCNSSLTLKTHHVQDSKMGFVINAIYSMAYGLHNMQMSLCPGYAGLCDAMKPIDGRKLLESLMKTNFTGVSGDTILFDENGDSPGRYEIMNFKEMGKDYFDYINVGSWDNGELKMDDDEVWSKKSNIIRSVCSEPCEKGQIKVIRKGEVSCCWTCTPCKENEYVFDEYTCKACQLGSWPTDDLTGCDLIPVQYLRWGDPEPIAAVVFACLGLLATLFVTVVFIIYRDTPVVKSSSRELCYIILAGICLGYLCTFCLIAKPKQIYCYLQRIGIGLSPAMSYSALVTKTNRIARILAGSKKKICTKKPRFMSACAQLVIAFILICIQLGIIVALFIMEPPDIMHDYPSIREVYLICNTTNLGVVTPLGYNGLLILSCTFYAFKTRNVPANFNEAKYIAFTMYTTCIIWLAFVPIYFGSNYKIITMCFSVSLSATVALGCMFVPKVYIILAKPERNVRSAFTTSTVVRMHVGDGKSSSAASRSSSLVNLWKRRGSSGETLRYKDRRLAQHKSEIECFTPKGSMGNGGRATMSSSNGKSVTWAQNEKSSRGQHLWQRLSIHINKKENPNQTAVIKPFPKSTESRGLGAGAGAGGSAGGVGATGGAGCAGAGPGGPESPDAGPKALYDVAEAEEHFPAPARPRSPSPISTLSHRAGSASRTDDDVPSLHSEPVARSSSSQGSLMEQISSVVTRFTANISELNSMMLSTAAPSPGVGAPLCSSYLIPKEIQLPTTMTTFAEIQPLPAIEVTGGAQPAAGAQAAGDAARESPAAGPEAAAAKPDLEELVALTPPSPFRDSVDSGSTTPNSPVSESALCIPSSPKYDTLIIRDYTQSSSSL

The assay concerns the target T1, human recombinant mGluR5 (Homo sapiens, UniProt P41594).
T1 construct: expressed in transfected cells; host or cells: HEK 293
The assay is described as follows: positive modulation of mGluR5, calcium based FLIPR assay. The following applies: HEK 293 cell line expressing human recombinant mGluR5; EC50 of the modulation from peak Ca fluorescence signal after glutamate at approx. 5% basal stimulation. In outline: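 HEK 293 cells expressing human recombinant mGluR5, Calcium-4 dye-loaded in Ringer solution pH 7.4. Compound (1% DMSO final) preincubated 5 min, then glutamate at ~5% of maximal effect added; peak Ca2+ fluorescence gives EC50 by nonlinear regression, normalized to DMSO (100%) and 10 μM CDPPB (200%) controls.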
On to `Cc1nc2c(s1)CCN(C(=O)Cn1nc(-c3ccc(OC(F)F)cn3)cc1-c1ccccc1)CC2` [Example 7.02.236], for which the negative-log EC50 (pEC50) is 7.16.

`O=C(Cn1nc(-c2ccccc2)cc1-c1ccccc1)N1CCc2nc(-c3ccccc3)nc(O)c2C1` [Example 7.02.002]: the negative-log EC50 (pEC50) was 5.93.

Take `COc1cnc(C2CCN(C(=O)Cn3nc(-c4cccc(C)c4)cc3-c3ccccc3)CC2)nc1` [Example 7.02.203]: the pEC50 is 6.75.

In the case of `CNc1nc2c(s1)CCN(C(=O)Cn1nc(-c3ccc(F)c(C)c3)cc1C1CC1)CC2` [Example 7.02.037], the pEC50 is 6.71.

For `Cc1cnc(C2=CCN(C(=O)Cn3nc(-c4ccc(F)c(C)c4)cc3-c3ccccc3)CC2)o1` [Example 7.02.100], the pEC50 was 8.40.

With `O=C(Cn1nc(-c2ccccc2)cc1-c1ccccc1)N1CCc2ncnc(-c3ccccc3)c2CC1` [Example 7.01.026], the negative logarithm of the EC50 (pEC50) was 6.30.

In the case of `COc1cc(-c2cc(-c3ccccc3)n(CC(=O)N3CCc4nc(C)sc4CC3)n2)ccc1F` [Example 7.02.148], the pEC50 was 7.82.

With `Cc1nnc(N2CCN(C(=O)Cn3nc(-c4ccc(F)c(C)c4)cc3C)CC2)o1` [Example 7.01.063], the pEC50 was 6.48.

As for `N#Cc1ccc(Cl)cc1NC1CCN(C(=O)Cn2nc(-c3ccccc3)cc2-c2ccccc2)CC1` [Example 7.01.053], the pEC50 is 6.04.

Take `CCc1cc(-c2ccc(C)c(C)c2)nn1CC(=O)N1CCc2nc(N)sc2CC1` [Example 7.02.074]: the pEC50 is 6.77.

`CCCc1cc(-c2ccc(F)c(C)c2)nn1CC(=O)N1CCN(c2noc(C)n2)CC1` [Example 7.02.211]: the pEC50 is 7.89.

`Cc1nc2c(s1)CCN(C(=O)Cn1nc(-c3ccc(F)c(C)c3)cc1C(C)C)CC2` [Example 7.02.055]: the negative logarithm of the EC50 (pEC50) is 7.38.

Regarding `Cc1nc(N2CCN(C(=O)Cn3nc(-c4ccc(OC(F)F)cn4)cc3-c3ccccc3)CC2)no1` [Example 7.02.235], the negative logarithm of the EC50 (pEC50) was 7.52.

On to `Cc1nc2c(o1)CN(C(=O)Cn1nc(-c3ccc(C)c(F)c3)cc1-c1ccccc1)C2` [Example 7.02.253], for which the pEC50 was 7.39.

Take `CCc1cc(-c2ccc(F)c(C)c2)nn1CC(=O)N1CC=C(c2cccc(OC)c2)CC1` [Example 7.02.137]: the negative logarithm of the EC50 (pEC50) was 6.45.

With `CCc1cc(-c2ccc(C)c(F)c2)nn1CC(=O)N1Cc2nc(C)oc2C1` [Example 7.02.245], the pEC50 is 6.63.

Turning to `Cc1nc2c(s1)CN(C(=O)Cn1nc(-c3cccc(Cl)c3)cc1-c1ccccc1)C2` [Example 7.02.143], the negative logarithm of the EC50 (pEC50) is 7.32.

As to `COc1cnc(C2CCN(C(=O)Cn3nc(-c4ccc(C)c(C)c4)cc3-c3ccccc3)CC2)nc1` [Example 7.02.089], the pEC50 was 7.23.

As for `COc1cccc(N2CCN(C(=O)Cn3nc(-c4ccc(F)cc4)cc3-c3ccc(F)cc3)CC2=O)c1` [Example 7.02.012], the pEC50 was 7.33.

Take `Cc1nnc(N2CCN(C(=O)Cn3nc(-c4ccc(C(F)F)cc4)cc3-c3ccccc3)CC2)o1` [Example 7.02.258]: the negative-log EC50 (pEC50) is 7.51.

For `COc1ccc(-c2cc(C(C)C)n(CC(=O)N3CCc4nc(C)oc4C3)n2)cc1` [Example 7.02.043], the pEC50 is 5.76.

`Cc1cnc(C2CCN(C(=O)Cn3nc(-c4ccc(F)c(C)c4)cc3-c3ccccc3)CC2)o1` [Example 7.02.098]: the pEC50 was 7.92.

For the molecule `CCc1cc(-c2cccc(C)c2)nn1CC(=O)N1CC=C(c2cc(OC)ncn2)CC1` [Example 7.02.093], the negative logarithm of the EC50 (pEC50) was 6.92.

Turning to `COc1ccc2c(c1)CCN(C(=O)Cn1nc(-c3ccccc3)cc1-c1ccccc1)C2` [Example 7.01.018], the negative-log EC50 (pEC50) is 6.27.

`COCc1nnc(C2CCN(C(=O)Cn3nc(-c4ccc(F)c(C)c4)cc3-c3ccccc3)CC2)o1` [Example 7.02.227]: the pEC50 is 7.46.

For `COCc1cc(-c2ccc(F)c(C)c2)nn1CC(=O)N1CCc2nc(C)oc2C1` [Example 7.01.057], the pEC50 was 6.13.

Regarding `COc1cccc(-c2cc(C3CCCCC3)n(CC(=O)N3CCN(c4cccc(OC)c4)C(=O)C3)n2)c1` [Example 7.02.053], the negative logarithm of the EC50 (pEC50) is 6.26.

As for `Cc1nc2c(s1)CCN(C(=O)Cn1nc(-c3ccc(F)c(C)c3)cc1CC(C)C)CC2` [Example 7.02.119], the pEC50 was 7.92.

Turning to `Cc1nc2c(s1)CCN(C(=O)Cn1nc(-c3ccc(F)c(C)c3)cc1C)CC2` [Example 7.01.059], the negative logarithm of the EC50 (pEC50) was 7.49.

For `O=C(Cn1nc(-c2ccccc2)cc1-c1ccccc1)N1CCc2cn[nH]c2CC1` [Example 7.01.006], the negative logarithm of the EC50 (pEC50) was 6.06.

Consider `Cc1nc2c(o1)CN(C(=O)Cn1nc(-c3cc(C)c(F)cn3)cc1-c1ccccc1)C2` [Example 7.02.177], for which the negative-log EC50 (pEC50) was 6.95.

As for `Cc1cccc(-c2cc(-c3ccccc3)n(CC(=O)N3CCc4nc(N)sc4CC3)n2)c1` [Example 7.02.199], the pEC50 was 7.80.

On to `COc1cc(-c2cc(C(C)C)n(CC(=O)N3CCc4nc(C)sc4CC3)n2)ccc1F` [Example 7.02.051], for which the pEC50 is 6.72.

On to `Cc1nc2c(s1)CCN(C(=O)Cn1nc(-c3cc(C)c(C)cn3)cc1-c1ccccc1)CC2` [Example 7.02.126], for which the negative-log EC50 (pEC50) was 7.17.

Turning to `CCc1cc(-c2cccc(Cl)c2)nn1CC(=O)N1CCN(c2nnc(C)o2)CC1` [Example 7.02.112], the pEC50 was 6.39.

With `Cc1cc(-c2cc(-c3ccccc3)nn2CC(=O)N2CCc3nc(C)sc3CC2)ccn1` [Example 7.01.064], the negative logarithm of the EC50 (pEC50) is 5.91.

With `COC(=O)c1ccc2c(c1)CCN(C(=O)Cn1nc(-c3ccccc3)cc1-c1ccccc1)CC2` [Example 7.01.030], the pEC50 was 6.32.

Consider `O=C(Cn1nc(-c2ccccc2)cc1-c1ccccc1)N1CCN(c2ccccc2F)C(=O)C1` [Example 7.01.014], for which the negative-log EC50 (pEC50) is 6.33.

Regarding `Cc1cc(-c2cc(-c3ccccc3)n(CC(=O)N3CCc4ncccc4C3)n2)ccc1F` [Example 7.01.078], the pEC50 was 7.11.

Regarding `Cc1nc(N2CCN(C(=O)Cn3nc(-c4cc(C)c(F)cn4)cc3-c3ccccc3)CC2)no1` [Example 7.02.178], the pEC50 is 7.16.

For the molecule `Cc1nc2c(o1)CCN(C(=O)Cn1nc(-c3ccc(F)c(C)c3)cc1-c1ccccc1)C2` [Example 7.01.085], the pEC50 was 7.59.

In the case of `Cc1cc(-c2cc(-c3ccccc3)n(CC(=O)N3CCc4ncnc(-c5ccccc5)c4CC3)n2)ccc1F` [Example 7.01.092], the pEC50 is 7.48.

Turning to `CCc1cc(-c2ccc(C)c(C)c2)nn1CC(=O)N1CCc2nc(C)sc2CC1` [Example 7.02.083], the pEC50 is 7.46.

Consider `Cc1cc(-c2cc(-c3ccccc3)n(CC(=O)N3CCc4cccnc4CC3)n2)ccc1F` [Example 7.02.131], for which the pEC50 was 8.10.

For the molecule `N#Cc1ccc2c(c1)CN(C(=O)Cn1nc(-c3ccccc3)cc1-c1ccccc1)CC2` [Example 7.01.031], the negative-log EC50 (pEC50) was 5.73.

For `Cc1ccc(-c2cc(-c3ccccc3)n(CC(=O)N3CCc4nc(N)sc4CC3)n2)cc1C` [Example 7.02.094], the pEC50 is 7.31.

Turning to `CCc1cc(-c2ccc(F)c(C)c2)nn1CC(=O)N1Cc2nc(C)oc2C1` [Example 7.02.213], the pEC50 is 7.59.

Consider `COc1cccc(N2CCN(C(=O)Cn3nc(-c4ccccc4)cc3-c3ccccc3)CC2=O)c1` [Example 7.01.035], for which the pEC50 is 6.69.

As for `CCc1cc(-c2ccc(F)c(C)c2)nn1CC(=O)N1CCN(c2cccc(OC)c2)C(=O)C1` [Example 7.02.027], the negative logarithm of the EC50 (pEC50) is 7.24.

For the molecule `CCc1cc(-c2cccc(C)c2)nn1CC(=O)N1CCC(c2ncc(OC)cn2)CC1` [Example 7.02.081], the negative logarithm of the EC50 (pEC50) was 6.00.

As to `Cc1nc2c(s1)CN(C(=O)Cn1nc(-c3ccccc3)cc1-c1ccccc1)C2` [Example 7.01.038], the pEC50 is 6.44.

For the molecule `COc1ccc2c(c1)CCN(C(=O)Cn1nc(-c3ccc(F)c(C)c3)cc1-c1ccccc1)CC2` [Example 7.01.083], the pEC50 was 7.07.

Consider `Cc1nc2c(s1)CN(C(=O)Cn1nc(-c3cc(C)c(F)cn3)cc1-c1ccccc1)C2` [Example 7.02.176], for which the pEC50 was 6.66.

Take `Cc1nc2c(o1)CN(C(=O)Cn1nc(-c3ccc(OC(F)F)cc3)cc1-c1ccccc1)C2` [Example 7.02.223]: the pEC50 was 7.89.

On to `Cc1nc2c(s1)CN(C(=O)Cn1nc(-c3ccc(F)cn3)cc1-c1ccc(F)cc1)C2` [Example 7.02.059], for which the negative-log EC50 (pEC50) is 6.54.

With `Cc1nc2c(s1)CN(C(=O)Cn1nc(-c3ccc(C)c(C)n3)cc1-c1ccccc1)C2` [Example 7.02.124], the negative-log EC50 (pEC50) was 7.17.

With `Cc1nc2c(o1)CN(C(=O)Cn1nc(-c3ccc(F)c(C)c3)cc1C)C2` [Example 7.02.155], the negative logarithm of the EC50 (pEC50) was 7.04.

As for `CCc1cc(-c2ccc(F)c(C)c2)nn1CC(=O)N1CC=C(c2ncc(C)s2)CC1` [Example 7.02.135], the pEC50 was 7.35.

Regarding `CCc1cc(-c2cc(C)c(F)c(C)c2)nn1CC(=O)N1CCc2nc(N)sc2CC1` [Example 7.02.133], the pEC50 is 6.56.

As to `Cc1nc2c(s1)CN(C(=O)Cn1nc(-c3ccc(F)c(C)n3)cc1-c1ccccc1)C2` [Example 7.02.172], the negative-log EC50 (pEC50) was 7.19.

Turning to `CCc1cc(-c2cccc(Cl)c2)nn1CC(=O)N1CCc2nc(N)sc2CC1` [Example 7.02.110], the pEC50 is 6.81.

Regarding `CC(C)c1ncc2c(n1)CCN(C(=O)Cn1nc(-c3ccccc3)cc1-c1ccccc1)C2` [Example 7.01.029], the pEC50 was 6.10.

In the case of `COc1cnc(C2=CCN(C(=O)Cn3nc(-c4ccc(F)c(C)c4)cc3-c3ccccc3)CC2)nc1` [Example 7.02.101], the pEC50 was 7.85.

For the molecule `Cc1nc(N2CCN(C(=O)Cn3nc(-c4ccc(F)c(C)c4)cc3-c3ccccc3)CC2)no1` [Example 7.02.195], the pEC50 was 8.70.

For the molecule `CCc1nnc(N2CCN(C(=O)Cn3nc(-c4ccc(F)c(C)c4)cc3CC)CC2)o1` [Example 7.02.163], the negative logarithm of the EC50 (pEC50) is 6.91.

With `CCc1cccc(-c2cc(CC)n(CC(=O)N3CCN(c4cccc(OC)c4)C(=O)C3)n2)c1` [Example 7.02.065], the negative-log EC50 (pEC50) was 6.71.
